AC50 and EC50 data for 26 molecules are collected here from ChEMBL document CHEMBL1201862, “PubChem BioAssay data set” (2004).

Test [1] has as its target FAD-linked sulfhydryl oxidase ALR (Homo sapiens, UniProt P55789). The experiment in a line: inhibitors of human ALR sulfhydryl oxidase, dose response, biochemical, H2O2 detection, luminescence, cherry-pick (AID 493248).
The target in the next test is T1, Protein RecA (Mycobacterium tuberculosis, UniProt P9WHJ3).
T1 sequence (P9WHJ3 whole entry): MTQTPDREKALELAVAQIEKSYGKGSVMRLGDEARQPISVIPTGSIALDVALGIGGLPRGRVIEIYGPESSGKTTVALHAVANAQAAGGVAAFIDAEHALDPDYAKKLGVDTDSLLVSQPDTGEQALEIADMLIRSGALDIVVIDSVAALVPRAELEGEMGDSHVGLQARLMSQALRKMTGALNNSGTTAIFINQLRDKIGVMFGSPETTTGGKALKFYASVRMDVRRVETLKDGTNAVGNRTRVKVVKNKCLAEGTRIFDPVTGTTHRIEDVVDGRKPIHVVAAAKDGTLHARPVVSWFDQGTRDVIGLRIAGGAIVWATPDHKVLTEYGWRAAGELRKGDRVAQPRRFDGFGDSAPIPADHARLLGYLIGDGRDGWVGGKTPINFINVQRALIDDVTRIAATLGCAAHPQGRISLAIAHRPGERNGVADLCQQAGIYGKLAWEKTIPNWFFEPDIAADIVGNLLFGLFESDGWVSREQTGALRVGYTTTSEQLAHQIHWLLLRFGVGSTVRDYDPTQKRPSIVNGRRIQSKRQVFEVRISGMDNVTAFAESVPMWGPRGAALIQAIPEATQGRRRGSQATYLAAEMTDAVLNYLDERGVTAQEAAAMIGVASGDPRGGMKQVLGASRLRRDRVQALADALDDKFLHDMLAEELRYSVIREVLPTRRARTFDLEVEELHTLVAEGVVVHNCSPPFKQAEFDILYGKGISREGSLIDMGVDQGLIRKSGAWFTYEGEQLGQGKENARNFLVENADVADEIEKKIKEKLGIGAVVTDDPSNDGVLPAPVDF
The experiment in a line: Fluorescence Cell-Free Homogeneous Dose Retest to Identify Inhibitors of RecA-Intein Splicing Activity. [Related pubchem assays (depositor defined):AID2097, AID2223, AID489010, AID492950]. The format is functional.

Test [2] has as its target T2, Replicative DNA helicase DnaB (Mycobacterium tuberculosis, UniProt P9WMR3).
T2 sequence (P9WMR3 whole entry): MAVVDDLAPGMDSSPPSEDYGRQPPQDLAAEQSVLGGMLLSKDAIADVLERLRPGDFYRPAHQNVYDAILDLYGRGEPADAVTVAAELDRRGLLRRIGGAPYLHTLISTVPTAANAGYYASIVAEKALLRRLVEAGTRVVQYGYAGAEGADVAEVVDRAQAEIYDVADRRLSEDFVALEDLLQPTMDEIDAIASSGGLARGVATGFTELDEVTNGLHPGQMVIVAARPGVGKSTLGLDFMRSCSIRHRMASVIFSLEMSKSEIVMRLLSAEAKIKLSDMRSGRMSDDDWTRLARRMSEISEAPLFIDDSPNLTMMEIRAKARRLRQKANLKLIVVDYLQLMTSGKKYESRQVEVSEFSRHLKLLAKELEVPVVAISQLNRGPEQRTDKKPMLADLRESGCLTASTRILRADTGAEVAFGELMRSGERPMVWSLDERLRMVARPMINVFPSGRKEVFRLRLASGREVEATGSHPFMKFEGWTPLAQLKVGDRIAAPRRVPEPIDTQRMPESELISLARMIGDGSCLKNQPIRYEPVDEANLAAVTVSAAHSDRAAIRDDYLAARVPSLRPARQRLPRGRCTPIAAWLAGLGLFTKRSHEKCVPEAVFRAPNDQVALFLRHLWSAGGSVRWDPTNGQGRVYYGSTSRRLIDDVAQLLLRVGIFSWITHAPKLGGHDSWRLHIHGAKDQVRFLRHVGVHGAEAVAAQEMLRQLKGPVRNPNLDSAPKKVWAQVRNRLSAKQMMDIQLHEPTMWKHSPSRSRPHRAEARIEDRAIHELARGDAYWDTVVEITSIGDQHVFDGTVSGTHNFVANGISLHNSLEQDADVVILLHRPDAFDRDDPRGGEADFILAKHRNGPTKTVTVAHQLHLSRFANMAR
The experiment in a line: DnaB intein splicing inhibitors, dose response, biochemical, cell-free fluorescence (AID 449749). It counts as functional.

The nature of test [3]: ZM109 Env clade C HIV-1 fusion inhibitors, dose response, HeLa effector, CEM target cells, luciferase, cherry-pick (AID 652058). It counts as functional, cell-based.
Test [4] has as its target T3, RNA-binding protein pos-1 (Caenorhabditis elegans, UniProt G5EF15).
T3 sequence (G5EF15 whole entry): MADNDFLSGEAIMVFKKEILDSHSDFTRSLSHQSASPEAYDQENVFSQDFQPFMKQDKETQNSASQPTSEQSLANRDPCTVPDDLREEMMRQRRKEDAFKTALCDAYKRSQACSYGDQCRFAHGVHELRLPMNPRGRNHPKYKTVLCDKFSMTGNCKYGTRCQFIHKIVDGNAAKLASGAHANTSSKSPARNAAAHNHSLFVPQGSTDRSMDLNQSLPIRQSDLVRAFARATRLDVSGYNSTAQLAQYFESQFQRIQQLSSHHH
The experiment in a line: inhibitors of POS-1/mex-3 RNA binding, dose response, biochemical, fluorescence polarization (AID 1964).

For test [5], the target named is T4, Zinc finger protein mex-5 (Caenorhabditis elegans, UniProt Q9XUB2).
T4 sequence (Q9XUB2 whole entry): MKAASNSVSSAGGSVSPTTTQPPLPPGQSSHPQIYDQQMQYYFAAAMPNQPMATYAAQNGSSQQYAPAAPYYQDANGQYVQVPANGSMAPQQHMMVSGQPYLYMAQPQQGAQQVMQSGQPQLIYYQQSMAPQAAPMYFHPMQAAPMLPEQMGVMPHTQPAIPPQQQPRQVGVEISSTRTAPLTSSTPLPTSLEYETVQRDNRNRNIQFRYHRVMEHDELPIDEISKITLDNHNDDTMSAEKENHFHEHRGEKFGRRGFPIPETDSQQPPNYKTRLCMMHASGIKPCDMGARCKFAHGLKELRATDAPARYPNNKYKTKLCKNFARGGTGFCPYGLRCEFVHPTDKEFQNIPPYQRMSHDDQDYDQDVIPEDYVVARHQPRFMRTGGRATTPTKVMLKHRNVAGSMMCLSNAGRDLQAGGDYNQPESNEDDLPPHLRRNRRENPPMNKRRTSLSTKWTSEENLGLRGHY
The experiment in a line: MEX-5/TCR-2 RNA interaction inhibitors, dose response, biochemical, C. elegans, fluorescence polarization (AID 1960).

The nature of test [6]: inhibitors of clade B AD8 Env fusion, dose response, cell-based, cherry-pick (AID 652062). The format is functional.
The next test concerns the target T5, Streptokinase A (Streptococcus pyogenes serotype M1, UniProt P10520).
T5 sequence (P10520 whole entry): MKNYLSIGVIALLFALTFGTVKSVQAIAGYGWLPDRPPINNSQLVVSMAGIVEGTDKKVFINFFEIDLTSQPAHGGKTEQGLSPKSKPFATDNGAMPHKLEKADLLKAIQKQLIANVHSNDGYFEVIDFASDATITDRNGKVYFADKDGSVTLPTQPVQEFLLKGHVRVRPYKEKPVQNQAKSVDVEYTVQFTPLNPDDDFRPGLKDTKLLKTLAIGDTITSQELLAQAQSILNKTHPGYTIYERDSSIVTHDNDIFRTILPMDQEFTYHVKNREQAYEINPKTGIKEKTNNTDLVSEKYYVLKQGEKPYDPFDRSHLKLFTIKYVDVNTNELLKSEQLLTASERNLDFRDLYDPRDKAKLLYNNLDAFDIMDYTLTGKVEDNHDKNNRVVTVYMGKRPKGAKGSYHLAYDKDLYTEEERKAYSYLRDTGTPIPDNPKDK
The experiment in a line: S. pyogenes streptokinase expression inhibitors, potency, dose response, plasminogen activation absorbance, OD405 (AID 1914). It counts as functional, Streptococcus pyogenes M1 GAS.

In test [7] the test system is Streptococcus sp. 'group A'. The experiment in a line: growth inhibition of control SK(-) GAS strain, dose response, counter-screen for streptokinase expression inhibitor project, luminescence, kanamycin, BacTiterGlo, confirmation (AID 1900). It counts as functional, organism-based. In general terms: The purpose of a counterscreen is to sort out artefacts and off-target activity.

A further test relates to Streptococcus. The experiment in a line: Group A Streptococcus viability loss, dose response, counter-screen for streptokinase expression inhibitor project, luminescence, BacTiterGlo (AID 1915). It counts as functional, organism-based.

Molecules are shown by their SMILES. Calls of active or inactive are those of the source. Cut-off read from the data, not from the text of the source, for most assays here: actives have a measured EC50 and inactives only a lower limit.

Chain of FAD-linked sulfhydryl oxidase ALR (P55789 whole entry): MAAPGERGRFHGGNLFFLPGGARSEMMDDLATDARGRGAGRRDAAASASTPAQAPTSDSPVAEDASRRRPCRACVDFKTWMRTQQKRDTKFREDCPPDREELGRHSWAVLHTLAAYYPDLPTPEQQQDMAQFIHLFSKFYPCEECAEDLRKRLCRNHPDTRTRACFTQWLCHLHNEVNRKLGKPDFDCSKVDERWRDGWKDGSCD

Consider `CCCCCC(=O)N/N=C/c1cc(Br)c(O)c(OC)c1`, for which the AC50 (commonly the concentration at which the activity in the assay is half-maximal) in test [1] is 0.098 µM (active).

In the case of `O=[N+]([O-])/C(C(Cl)=C(Cl)Cl)=C(/Sc1ccccc1)N1CCCCC1`, the 50% effective concentration (EC50) (in general, the concentration giving a 50% effect) at Protein RecA is 7.05 µM (active). The AC50 in test [2] is 3.88 µM (active).

For the molecule `CC1CC(C)CN(C(=O)c2ccc3c(c2)N(Cc2ccccc2)CCS3)C1` (stereo not given), the EC50 on Protein RecA is 23.6 µM (active). The AC50 in [2] was 5.01 µM (active).

As for `Nc1scc(-c2ccncc2)c1Cl`, the AC50 in [1] is 1.73 µM (active).

In the case of `O=C(Nc1cccc(OC(=O)c2ccc(Br)o2)c1)c1ccccc1`, the EC50 on Protein RecA was 9.2 µM (active). Besides, the half-maximal activity concentration (AC50) in test [2] is 0.0485 µM (inconclusive).

Regarding `CN(C)C(=O)C[C@H]1C[C@@H]2c3cc(NS(=O)(=O)c4ccc(F)cc4)ccc3O[C@@H]2[C@@H](CO)O1`, the AC50 in test [3] was 54.1 µM (active).

In the case of `Cc1ccc2nc(O)c(CN(CCO)Cc3nnnn3CCc3ccccc3)cc2c1`, the EC50 in test [4] and in [5] was > 300 µM (not active) throughout.

In the case of `CCCCC(=O)NC(c1cccc([N+](=O)[O-])c1)c1c(OC(C)=O)ccc2ccccc12` (stereo not given), the EC50 at Protein RecA was 25.4 µM (active). Also, the AC50 in test [2] is 41.6 µM (active).

As for `Cc1ccc(CNC(=O)CCN2C(=O)[C@@H]3Cc4ccccc4CN3C2=O)cc1`, the EC50 at Protein RecA was > 380 µM (inactive). Also, the AC50 in test [2] was 373 µM (active).

Turning to `COc1ccccc1C(=O)Nc1ccc2c(c1)nc1n2CCSC1`, the AC50 in test [1] was 0.076 µM (active).

Take `O=C(c1ccccc1)N1CCC(c2nc(-c3ccc(S(=O)(=O)NCC4CCCO4)cc3)no2)CC1` (stereo not given): the half-maximal activity concentration (AC50) in test [3] was 24.4 µM (active); in [6], 11.3 µM (active).

As to `COc1ccc(N2CCN(C(=O)Cc3ccc(OC)c(OC)c3)CC2)cc1`, the AC50 in test [1] was 7.7 µM (active).

In the case of `CC1(S(=O)(=O)O)CC(=O)c2ccccc2C1=O` (stereo not given), the EC50 on Protein RecA was 3.03 µM (active). In test [2], the AC50 was 5.26 µM (active).

With `Cc1ccc(/C=C2/Sc3ccc(C(=O)N4CCC5(CC4)OCCO5)cc3NC2=O)cc1`, the EC50 on Streptokinase A is > 150 µM (not active); in [7], 7.6 µM (active); in the test on Streptococcus, 9.49 µM (active); in test [4] it was 4.37 µM (active); in [5], 8.06 µM (inconclusive).

For `COC(=O)CCC(=O)OC1(C)C(=O)C2=CN(CCc3ccccn3)C(c3ccc(OC)cc3)=CC2=C(Br)C1=O` (stereo not given), the EC50 in test [4] was 68.5 µM (active); in test [5], 8.83 µM (active).

Turning to `CC(C)(C)OC(=O)NCCCC1=CC2=CC(=O)C(C)(OC(=O)c3ccco3)C(=O)C2=CO1` (stereo not given), the EC50 in [4] is 46.9 µM (active); in [5], 46.8 µM (active).

`O=C(N[C@H]1CP(=O)(Oc2ccccc2)O[C@H](COCc2ccccc2)[C@H]1O)C(Cl)(Cl)Cl` (stereo not given in full): the concentration for a half-maximal effect (EC50) in test [4] and in [5] was > 300 µM (not active) each time.

As to `Cc1ccc(N2C(=O)NC(=O)/C(=C\c3cc(C)n(-c4cc(C(=O)O)cc(C(=O)O)c4)c3C)C2=O)cc1`, the EC50 in test [4] and in test [5] was > 300 µM (not active) in each case.

For the molecule `CN(C)c1ccc(C(c2nnnn2C(C)(C)C)N2CCN(C(=O)c3ccco3)CC2)cc1` (stereo not given), the AC50 in test [1] was 3.83 µM (active).

Turning to `O=C(CNCC1CCCCC1)Nc1ccc(N2CCCCC2)cc1`, in [1], the AC50 was 13.4 µM (active).

For `Cc1ccc(N2C(=O)C(Cl)=C(NCCO)C2=O)c(C)c1`, the EC50 on Protein RecA was 10.8 µM (active). Moreover, the AC50 in test [2] is 155 µM (active).

As for `COCc1cc(O)n2ncc(-c3ccsc3)c2n1`, the AC50 in [1] is 3.5 µM (active).

With `c1ccc(CN2C3=NCCN3c3ccccc32)cc1`, in [1], the AC50 was 40.9 µM (active).

`O=C(CCl)NCc1c(Cl)cccc1-n1cccc1`: on Protein RecA, the 50% effective concentration (EC50) was 15.3 µM (active). For the same molecule, the AC50 in [2] was > 380 µM (inactive).

With `CCCc1n[nH]c2c1C(c1ccc(O)c(OC)c1)C(C#N)=C(N)O2` (stereo not given), the EC50 at Protein RecA is 8.18 µM (active). The AC50 in [2] is 57.1 µM (active).

Turning to `Nc1ncc(Br)cc1S(=O)(=O)NCCC(=O)N1CCN(c2ccccc2)CC1`, the AC50 in [1] was 1.56 µM (active).
